Entries after “also recorded” stand apart in the source; their conditions may differ.
Assays:
[1] = system: HIV-1; test: Efficacy of oral bridging (HIV-1 RNA, CD4), CAPELLA; type: in vivo, human; details: for Proportion of participants with HIV-1 RNA<50 copies/mL: suppressed at OB baseline
Excerpt: This Example describes analysis of oral LEN bridging administered during a Phase 2/3, global, randomized, placebo-controlled multicenter study of lenacapavir (LEN) together with an optimized background regimen (OBR) in people with HIV (PWH) with multidrug resistance (MDR) (to […] antiretroviral (ARV) medications from each of ≥3 of the 4 main classes) and who are failing their current regimen (defined as plasma HIV-1 RNA≥400 copies/mL).
This Example describes a Phase 2/3, global, randomized, placebo-controlled multicenter study of LEN together with an OBR in PWH with MDR (to ≥2 ARV medications from each of ≥3 of the 4 main classes) and who are failing their current regimen (defined as plasma HIV-1 RNA≥400 copies/mL). Participants required oral bridging if an SC injection of LEN was not administered within the protocol visit window.
Participants were enrolled in either of the following two cohorts: • Cohort 1: Randomized in a 2:1 ratio to receive oral LEN or placebo for 14 days starting on Day 1, while they continued their existing regimen; or • Cohort 2: Enrolled to receive oral LEN together with an OBR.

[2] = Safety during oral bridging period, CALIBRATE

CC(C)(C#Cc1ccc(-c2ccc(Cl)c3c(NS(C)(=O)=O)nn(CC(F)(F)F)c23)c([C@H](Cc2cc(F)cc(F)c2)NC(=O)Cn2nc(C(F)(F)F)c3c2C(F)(F)[C@@H]2C[C@H]32)n1)S(C)(=O)=O [LEN, N—((S)-1-(3-(4-chloro-3-(methylsulfonamido)-1-(2,2,2-trifluoroethyl)-1H-indazol-7-yl)-6-(3-methyl-3-(methylsulfonyl)but-1-yn-1-yl)pyridin-2-yl)-2-(3,5-difluorophenyl)ethyl)-2-((3bS,4aR)-5,5-difluoro-3-(trifluoromethyl)-3b,4,4a,5-tetrahydro-1H-cyclopropa [3,4]cyclopenta [1,2-c]pyrazol-1-yl) acetamide]
HIV-1 RNA of the 1 participant who did not maintain <50 copies/mL ([1]; Week 20): 57 copies/mL
Mean (SD) change from oral bridging baseline in CD4 cell count ([1]; Week 20): 12 (71.8) cells/μL
Mean change from oral bridging baseline in CD4 percentage ([1]; Week 20): 1.0%
Mean (SD) oral bridging baseline HIV-1 RNA ([1]; all who received oral bridging): 1.74 (0.947) log10 copies/mL
Percentage of participants with HIV-1 RNA<50 copies/mL ([1]; all who received oral bridging, Missing=Excluded, Week 10): 83.9%
Percentage of participants with HIV-1 RNA<50 copies/mL ([1]; all who received oral bridging, Missing=Excluded, Week 20): 91.4%
Percentage of participants with HIV-1 RNA<50 copies/mL ([1]; all who received oral bridging, Missing=Failure, Week 10): 83.9%
Percentage of participants with HIV-1 RNA<50 copies/mL ([1]; all who received oral bridging, Missing=Failure, Week 20): 84.2%
Mean (SD) change from oral bridging baseline in HIV-1 RNA ([1]; all who received oral bridging, Week 10): -0.11 (0.597) log10 copies/mL
Mean (SD) change from oral bridging baseline in HIV-1 RNA ([1]; all who received oral bridging, Week 20): −0.16 (0.476) log10 copies/mL
Virologic suppression during oral bridging (in words) ([1]; majority of participants suppressed at OB baseline): remained virologically suppressed
Proportion of participants with HIV-1 RNA<50 copies/mL ([1]; Missing=Excluded, OB Baseline): 46/46 (100) %
Proportion of participants with HIV-1 RNA<50 copies/mL ([1]; Missing=Excluded, OB Week 30): 10/10 (100) %
Changes from oral bridging baseline in blood pressure, pulse, respiration rate, body temperature [2]: no clinically relevant changes from oral bridging baseline
Treatment-related diarrhea ([2]; 1 participant): 1.2%
Grade 3 or higher blood creatine phosphokinase increased ([2]; 2 participants, both in oral LEN group): 1.7%
Participants with Grade 3 events ([2]; LEN total group): 2.5%
Participants with Grade 3 or higher AEs ([2]; LEN total group): 5.0%
Participants with Grade 4 events ([2]; LEN total group): 2.5%
TEAE COVID-19 ([2]; LEN total group): 5.8%
TEAE influenza ([2]; LEN total group): 7.4%
TEAE nasopharyngitis ([2]; LEN total group): 5.0%
TEAE syphilis ([2]; LEN total group): 5.0%
Participants with any AE ([2]; LEN total group (121)): 62.8%
Participants with AEs related to study drug ([2]; LEN total group, all Grade 1): 3.3%
Participants with serious AEs ([2]; LEN total group, not related to study drug): 2.5%
AE oropharyngeal pain ([2]; SC LEN total group): 4.9%
Participants with AEs related to study drug ([2]; SC LEN total group): 3.7%
Participants with Grade 3 events ([2]; SC LEN total group): 1.2%
Participants with Grade 3 or higher AEs ([2]; SC LEN total group): 3.7%
Participants with Grade 4 events ([2]; SC LEN total group): 2.4%
Participants with any AE ([2]; SC LEN total group): 64.6%
Participants with serious AEs ([2]; SC LEN total group): 2.4%
TEAE COVID-19 ([2]; SC LEN total group): 4.9%
TEAE influenza ([2]; SC LEN total group): 8.5%
TEAE nasopharyngitis ([2]; SC LEN total group): 4.9%
TEAE syphilis ([2]; SC LEN total group): 4.9%
Changes from oral bridging baseline in hematology or clinical chemistry ([2]; any treatment group): no clinically relevant changes from oral bridging baseline in median values for hematology or clinical chemistry parameters
AE arthralgia ([2]; oral LEN group): 5.1%
AE blood creatine phosphokinase increase ([2]; oral LEN group): 5.1%
AE dyslipidemia ([2]; oral LEN group): 5.1%
AE oropharyngeal gonococcal infection ([2]; oral LEN group): 5.1%
Participants with AEs related to study drug ([2]; oral LEN group): 2.6%
Participants with Grade 3 events ([2]; oral LEN group): 5.1%
Participants with Grade 3 or higher AEs ([2]; oral LEN group): 7.7%
Participants with Grade 4 events ([2]; oral LEN group): 2.6%
Participants with any AE ([2]; oral LEN group): 59.0%
Participants with serious AEs ([2]; oral LEN group): 2.6%
TEAE COVID-19 ([2]; oral LEN group): 7.7%
TEAE influenza ([2]; oral LEN group): 5.1%
TEAE nasopharyngitis ([2]; oral LEN group): 5.1%
TEAE syphilis ([2]; oral LEN group): 5.1%
AEs leading to premature discontinuation of study drug or study ([2]; oral bridging period): no TEAEs which led to a premature discontinuation of study drug or from the study were reported; also recorded: no AEs that led to premature discontinuation of study drug or from the study were reported
Deaths ([2]; oral bridging period): No deaths were reported
Overall safety and tolerability of oral LEN ([2]; oral bridging period): generally safe and well tolerated
